Data set [1] has as its system Cal-27 cells. In words: Proliferation of tongue squamous cell carcinoma Cal-27 cells (CCK-8). The following applies: 48 h treatment, CCK-8, FIG. 1. In kind it is cell-based. As to the method: Cells in good growth state were counted and inoculated into 96-well plates with 100 μL per well according to a certain cell density. After the cells adherence to the wall overnight, a medicament solution was added to intervene the cells. After 48 h of medicament treatment, CCK-8 reagent was added, 10 μL per well. After incubation for 2 h, the culture plates were taken out and detected at 450 nm wavelength of the enzymograph.

The subject of data set [2] is Cal-27 cells. In words: Killing effect of lymphocytes on tumor cells in Cal-27/PBMC co-culture (Incucyte). The note with it: compared with PBMC control group, anti-PD-1 antibody 5 μg/mL; for killing effect of lymphocytes on tumor cells: FIG. 5, Rg3 1, 5, 10 μM; for number of Cal-27 cells / killing effect of lymphocytes on tumor cells: FIG. 3, Rh2 1, 5, 10 μM, effect-to-target ratio 5:1. In kind it is cell-based. The procedure: Cal-27 cells in good growth state were digested and centrifuged, appropriate amount of cell suspension was taken and placed in a new centrifuge tube, incubated with the target red label reagent for 20 min, washed and centrifuged with serum-free culture solution, then plated, and placed in an incubator for overnight cultivation to make them adhere to the wall. PBMC stimulated by PHA was added into the well plate in ratios of 1:1, 5:1, 10:1 and 20:1, and Incucyte real-time dynamic cell imaging system was used to observe the killing effect of lymphocytes on tumor cells under different target ratio conditions.
Cal-27 cells in good growth statu were digested and centrifuged, incubated with red target labeling reagent for 20 min, and washed with serum-free culture solution. After the cells were adherence to the wall overnight, the PBMC stimulated by PHA was added to the well plate according to the effect-to-target ratio of 5:1 and co-cultured with Cal-27 cells. Ginsenoside Rh2 or ginsenoside Rg3 of medicament solution with different concentrations were prepared, and they and 5 μg/mL human anti-PD-1 antibody were added into the well plate for incubation, and were divided into control group, ginsenoside alone group, anti-PD-1 antibody alone group, ginsenoside and anti-PD-1 antibody combination group. The culture plates were placed into Incucyte real-time dynamic cell imaging analysis system for real-time monitoring.

Data set [3] concerns SCC-7 cells. Kind of data set: Tumor growth in head and neck squamous cell carcinoma-bearing mice. In kind it is in vivo. The note with it: FIG. 6A; alone, versus model control; Rh2 15 mg/kg intragastric; anti-PD-1 antibody 200 μg/mice intraperitoneal. The procedure:
SPF grade C57 mice, 6 weeks old, female, were purchased from Beijing Charles River Laboratories Animal Company. […] OF MEDICINAL PLANT DEVELOPMENT. The experimental facilities comply with barrier environmental standards, with a temperature of 20° C. to 26° C., a relative humidity of 40% to 70%, and light and dark alternating for 12 hours each. Mice were raised in standard boxes, with 5 mice per cage. During the raising process, the animals were allowed to eat and move freely.
(§1) The mice were randomly divided into four groups: model control group, ginsenoside Rh2 group (15 mg/kg), anti-PD-1 antibody group (200 μg/mice), and ginsenoside Rh2 in combination with anti-PD-1 antibody group. The administration time and volume were as follows: ginsenoside Rh2 was administered intragastrically 5 days before vaccination; anti-PD-1 antibody was administered intraperitoneally on days 3, 6, 9, and 12 after vaccination.
(§2) SCC-7 cells were resuscitated and expanded in large quantities. Trypsin was added to digest and the cells were collected. After counted, the cells were re-suspended in PBS solution and the cell concentration was adjusted, and the mice were inoculated with 5*10^6 cells/0.2 mL in the right armpit.
Throughout the experiment, the tumor volume of the mice was measured twice weekly.
After the experiment, the mice's eyeballs were removed to collect blood, and the tumor tissue was peeled off. […]

The test system of data set [4] is tumor-infiltrating lymphocytes. Kind of data set: Tumor-infiltrating lymphocyte levels in mice tumor tissue (flow cytometry). In kind it is in vivo. The note with it: for number/abundance of T cells infiltrating into tumors: FIGS. 7A and 7D. As to the method:
as §1, §2
After the experiment, the mice's eyeballs were removed to collect blood, and the tumor tissue was peeled off. The tumor tissue was divided into two parts, one part was quickly frozen in liquid nitrogen and then transferred to a −80° C. refrigerator for storage, and the other part was stored in PBS solution for flow cytometry detection.
Mice tumor samples were cut into pieces with sterile scissors, ground gently with a syringe stopper, and filtered through a 40 μm filter to prepare a single cell suspension. The cell suspension was transferred to a new centrifuge tube, PBS solution was added, the supernatant was discarded after centrifugation, and the remaining was washed with PBS and centrifuged again. PBS was added to re-suspended, 100 μL of resuspending solution was placed into the flow tube, the corresponding flow cytometry antibody was added for incubating and staining for 20 minutes, and then on-machine detection was performed.
In general terms: Flow cytometry measures light scatter and fluorescence of single cells or particles in a stream.

The conditions of data set [5]: Rh2 as metabolite relative to ginsenoside Rg3; cited from earlier work.

The values below come from US20260256821A1, “USE OF GINSENOSIDE IN COMBINATION WITH PD-1 BLOCKER IN PREPARING MEDICAMENT AGAINST HEAD AND NECK SQUAMOUS CELL CARCINOMA” (CHINESE ACADEMY OF MEDICAL SCIENCES INSTITUTE OF MEDICINAL …, priority 2022, published 2026).

For the molecule `CC(C)=CCC[C@](C)(O[C@@H]1O[C@H](CO)[C@@H](O)[C@H](O)[C@H]1O)[C@H]1CC[C@]2(C)[C@@H]1[C@H](O)C[C@@H]1[C@@]3(C)CC[C@H](O)C(C)(C)[C@@H]3CC[C@]12C` [ginsenoside CK], the “inhibitory effect on Cal-27 cells” value in data set [1] is given as “most significant inhibitory effect”.
Regarding `CC(C)=CCC[C@](C)(O[C@@H]1O[C@H](CO[C@@H]2O[C@H](CO)[C@@H](O)[C@H](O)[C@H]2O)[C@@H](O)[C@H](O)[C@H]1O)[C@H]1CC[C@]2(C)[C@@H]1[C@H](O)C[C@@H]1[C@@]3(C)CC[C@H](O[C@@H]4O[C@H](CO)[C@@H](O)[C@H](O)[C@H]4O[C@@H]4O[C@H](CO)[C@@H](O)[C@H](O)[C@H]4O)C(C)(C)[C@@H]3CC[C@]12C` [ginsenoside Rb1], in data set [1], the IC50 (usually the concentration at which inhibition is half-maximal) is around 100 µM and the “inhibitory effect on Cal-27 cells” value is recorded as “concentration-dependent inhibitory effects”.
As for `CC(C)=CCC[C@](C)(O[C@@H]1O[C@H](CO[C@@H]2OC[C@@H](O)[C@H](O)[C@H]2O)[C@@H](O)[C@H](O)[C@H]1O)[C@H]1CC[C@]2(C)[C@@H]1[C@H](O)C[C@@H]1[C@@]3(C)CC[C@H](O[C@@H]4O[C@H](CO)[C@@H](O)[C@H](O)[C@H]4O[C@@H]4O[C@H](CO)[C@@H](O)[C@H](O)[C@H]4O)C(C)(C)[C@@H]3CC[C@]12C` [ginsenoside Rb3], in data set [1], the IC50 was around 100 µM and the “inhibitory effect on Cal-27 cells” value is on record as “concentration-dependent inhibitory effects”.
Regarding `CC(C)=CCC[C@](C)(O[C@@H]1O[C@H](CO[C@@H]2O[C@@H](CO)[C@H](O)[C@H]2O)[C@@H](O)[C@H](O)[C@H]1O)[C@H]1CC[C@]2(C)[C@@H]1[C@H](O)C[C@@H]1[C@@]3(C)CC[C@H](O[C@@H]4O[C@H](CO)[C@@H](O)[C@H](O)[C@H]4O[C@@H]4O[C@H](CO)[C@@H](O)[C@H](O)[C@H]4O)C(C)(C)[C@@H]3CC[C@]12C` [ginsenoside Rc], the “inhibitory effect on Cal-27 cells” value in data set [1] is “concentration-dependent inhibitory effects”. In addition, the IC50 in data set [1] (Homo sapiens, CAL-27) is around 100 µM.
The like results for `CC(C)=CCC[C@](C)(O[C@@H]1O[C@H](CO)[C@@H](O)[C@H](O)[C@H]1O)[C@H]1CC[C@]2(C)[C@@H]1[C@H](O)C[C@@H]1[C@@]3(C)CC[C@H](O)C(C)(C)[C@@H]3[C@@H](O[C@@H]3O[C@H](CO)[C@@H](O)[C@H](O)[C@H]3O[C@@H]3O[C@@H](C)[C@H](O)[C@@H](O)[C@H]3O)C[C@]12C` [ginsenoside Re] were, in that order, “concentration-dependent inhibitory effects” and around 100 µM.
For `CC(C)=CCC[C@](C)(O[C@@H]1O[C@H](CO)[C@@H](O)[C@H](O)[C@H]1O)[C@H]1CC[C@]2(C)[C@@H]1[C@H](O)C[C@@H]1[C@@]3(C)CC[C@H](O)C(C)(C)[C@@H]3[C@@H](O[C@@H]3O[C@H](CO)[C@@H](O)[C@H](O)[C@H]3O)C[C@]12C` [ginsenoside Rg1], in data set [1], the IC50 was around 100 µM and the “inhibitory effect on Cal-27 cells” value is on record as “concentration-dependent inhibitory effects”.
On to `CC(C)=CCC[C@](C)(O)[C@H]1CC[C@]2(C)[C@@H]1[C@H](O)C[C@@H]1[C@@]3(C)CC[C@H](O[C@@H]4O[C@H](CO)[C@@H](O)[C@H](O)[C@H]4O[C@@H]4O[C@H](CO)[C@@H](O)[C@H](O)[C@H]4O)C(C)(C)[C@@H]3CC[C@]12C` [ginsenoside Rg3], for which the “inhibitory effect on Cal-27 cells” value in data set [1] is “most significant inhibitory effect”. For the same molecule, in data set [2], the “killing effect of lymphocytes on tumor cells” value is recorded as “can promote the killing effect of lymphocytes”.
Turning to `CC(C)=CCC[C@](C)(O)[C@H]1CC[C@]2(C)[C@@H]1[C@H](O)C[C@@H]1[C@@]3(C)CC[C@H](O)C(C)(C)[C@@H]3[C@@H](O[C@@H]3O[C@H](CO)[C@@H](O)[C@H](O)[C@H]3O)C[C@]12C` [ginsenoside Rh1], in data set [1], the IC50 is around 100 µM and the “inhibitory effect on Cal-27 cells” value is on record as “concentration-dependent inhibitory effects”.
As for `CC(C)=CCC[C@](C)(O)[C@H]1CC[C@]2(C)[C@@H]1[C@H](O)C[C@@H]1[C@@]3(C)CC[C@H](O[C@@H]4O[C@H](CO)[C@@H](O)[C@H](O)[C@H]4O)C(C)(C)[C@@H]3CC[C@]12C` [ginsenoside Rh2], the “inhibitory effect on Cal-27 cells” value in data set [1] is reported as “most significant inhibitory effect”. For the same molecule, the “number of Cal-27 cells / killing effect of lymphocytes on tumor cells” value in data set [2] is recorded as “can reduce the number of Cal-27 cells”. Further, the tumor volume entry in data set [3] was “significantly reduce the tumor size”. For the same molecule, the “number/abundance of T cells infiltrating into tumors” value in data set [4] is given as “neither ginsenoside Rh2 nor anti-PD-1 antibody had a significant effect”. The “proportion of B cell activation” value in data set [4] (FIGS. 7C and 7F, P<0.05) is “significantly increase the proportion of B cell activation”. For the same molecule, in data set [5], the content increased is recorded as 50 times and the oral bioavailability increased is reported as 5 times.
For pembrolizumab [anti-PD-1 antibody], in data set [2], the “number of Cal-27 cells / killing effect of lymphocytes on tumor cells” value is listed as “can also significantly promote the killing effect of lymphocytes” and the “killing effect of lymphocytes on tumor cells” value is recorded as “can significantly promote the killing effect of lymphocytes”. The tumor volume entry in data set [3] is “decreased slightly”. Further, the “number/abundance of T cells infiltrating into tumors” value in data set [4] is on record as “neither ginsenoside Rh2 nor anti-PD-1 antibody had a significant effect”. For the same molecule, in data set [4] (FIGS. 7B and 7E, P<0.05), the “infiltration level of CD8+ T cells in tumors” value is “increased significantly”.
